Test results as given in article PMC11726654, “Discovery of MDI-114215: A Potent and Selective LIMK Inhibitor To Treat Fragile X Syndrome” (Journal of Medicinal Chemistry, 2024).
Converted amounts (≈) assume the structure as drawn.

Legend:
Microsomal stability [1] = conditions: human, microsomes, pH 7.4
[2] = Caco-2 permeability and efflux; conditions: human, Caco-2
Microsomal stability [3] = conditions: for microsomal CLint at 0.5 h, 2 µM / microsomal CLint at 2 μM: rat, microsomes, pH 7.4; for Microsomal CLint Rat: rat microsomes, 2 μM compound
Thermodynamic solubility = conditions: PBS, pH 7
[4] = Unbound fraction in brain and plasma; format: in vitro ADME; conditions: for fubrain: unbound fraction in brain; for fuplasma: unbound fraction in plasma
In vivo PK, i.v. dosing = conditions: male, Sprague-Dawley, rat, plasma; for CLint scaled: intravenous; for AUC(0-inf) at 1 h / Vd at 1 h / half-life at 1 h: iv
Procedure: A satellite group of three animals were also administered i.v. test compound (dosed at 1 mg/kg in 10% DMSO/20% Cremophor/70% saline) and after 1 h, the animals culled and brain samples immediately prepared by homogenization in H2O and protein precipitation in MeCN. Bioanalysis on plasma and brain samples were performed using a UHPLC-tandem mass spectrometry using electrospray ionization.

CNS penetration study = conditions: male, Sprague-Dawley, rat, brain/plasma, iv, 1 mg/kg
[5] = In vivo PK, p.o./i.p. dosing; conditions: male, Sprague-Dawley, rat, plasma
Caco-2 = Caco-2 permeability and efflux; conditions: efflux ratio
[6] = test system: p-cofilin levels in WT and Fmr1 KO mouse brain slices; experiment: Western blot of p-cofilin in treated hippocampal brain slices; conditions: 3 μM, 30 min, WT and Fmr1 KO (P7–9) brain slices
Procedure: Hippocampal slices were obtained from neonatal (postnatal days 7–9) wild type (WT) and Fmr1 KO mice originally supplied by Jackson Laboratories. […] Mice for experimentation were killed by cervical dislocation. […] The temporal aspects of the brain were trimmed, bisected, then glued to a metal plate, such that the midline was uppermost and horizontal. […] Each individual sample was suspended in 300 μL of buffer and lysed by pipetting on ice. Samples were centrifuged to pellet at 17,000g for 30 min at 4 °C. Protein was quantified using Biorad DC protein assay (Biorad, 5000112) and read on a PheraStar plate reader (BMG Labtech) and standardized to 2 mg/mL each sample.
Sample loading buffer was added to each sample at 1:4 concentrations and boiled for 5 min prior to use. […] Membranes were then blocked in 5% BSA TBST for 1 h at rt and then placed into LIMK1, p-cofilin, cofilin and actin primary antibody solutions at 4 °C overnight. The following day, membranes were washed 3× in TBST solution before being placed in appropriate secondary antibody solutions for 1 h at room temperature. Following a final 3 washes in TBST, the membranes were developed using ClarityMax ECL substrate (Biorad, UK) at a 1:1 ratio. The ECL solution was allowed to develop on the membrane for 5 min prior to visualizing using the CHEMIDOC imaging system (Biorad, UK). […]

[7] = test system: p-cofilin Ser3 levels in SH-SY5Y cells; experiment: AlphaLISA SureFire p-cofilin assay; format: cell-based; conditions: Homo sapiens, 2 h, read-out: alphaLISA pIC50 p-cofilin (converted)
Procedure: The AlphaLISA assay for detection of p-cofilin Ser3 levels was followed as previously described.[14] […] Cells were placed in the incubator for 2 h, after which the media was removed and the cells were lysed using 50 μL AlphaLISA 1× lysis buffer (PerkinElmer, USA) containing protease inhibitor cocktail (Sigma/Merck, Dorset, UK) and Pierce phosphatase inhibitor cocktail (Thermo Fisher Scientific, UK). The cell lysate was then transferred to a clean, flat-bottom, white 384-well plate, to which 5 μL/well of acceptor bead solution consisting of Reaction buffer 1, Reaction buffer 2, Activation Buffer and Acceptor Beads from pCofilin SureFire Ultra assay kit (PerkinElmer, USA, cat# ALSU-PCOF-A500) was added under dim light. After incubation at RT for 1 h, 5 μL/well of donor solution consisting of Dilution Buffer and Donor beads was added. The plate was read on a Pherastar reader (BMD Labtech Ltd., Aylesbury, UK) using an AlphaLISA cartridge and AlphaLISA plate settings.

LIMK1 = LIMK1 (Homo sapiens, UniProt P53667); experiment: RapidFire mass spectrometry kinase assay (cofilin phosphorylation); format: biochemical; conditions: non-phosphorylated LIMK1; mean ± SEM; read-out: Enzymatic (RapidFire) pIC50 LIMK1 (converted)
Sequence of LIMK1 (P53667 whole entry): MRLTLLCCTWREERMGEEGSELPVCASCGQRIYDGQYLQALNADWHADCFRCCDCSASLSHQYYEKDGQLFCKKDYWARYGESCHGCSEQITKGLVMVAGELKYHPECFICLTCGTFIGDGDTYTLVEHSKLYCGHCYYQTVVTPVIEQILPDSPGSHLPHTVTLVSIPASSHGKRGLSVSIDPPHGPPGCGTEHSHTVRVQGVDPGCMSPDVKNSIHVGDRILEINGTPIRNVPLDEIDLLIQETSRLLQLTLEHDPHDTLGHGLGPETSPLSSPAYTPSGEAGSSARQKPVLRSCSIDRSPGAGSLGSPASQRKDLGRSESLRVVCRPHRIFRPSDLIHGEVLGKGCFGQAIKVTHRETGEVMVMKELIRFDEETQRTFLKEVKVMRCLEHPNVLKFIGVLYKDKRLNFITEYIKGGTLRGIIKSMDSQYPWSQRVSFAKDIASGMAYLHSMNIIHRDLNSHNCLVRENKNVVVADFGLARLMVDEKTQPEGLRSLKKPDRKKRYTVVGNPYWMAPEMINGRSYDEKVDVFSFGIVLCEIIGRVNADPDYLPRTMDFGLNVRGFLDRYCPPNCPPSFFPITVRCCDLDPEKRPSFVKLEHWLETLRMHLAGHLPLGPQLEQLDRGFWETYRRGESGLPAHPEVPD

LIMK2 = LIMK2 (Homo sapiens, UniProt P53671); experiment: as above; format: biochemical; conditions: non-phosphorylated LIMK2; mean ± SEM; read-out: Enzymatic (RapidFire) pIC50 LIMK2 (converted)
Sequence of LIMK2 (P53671 whole entry): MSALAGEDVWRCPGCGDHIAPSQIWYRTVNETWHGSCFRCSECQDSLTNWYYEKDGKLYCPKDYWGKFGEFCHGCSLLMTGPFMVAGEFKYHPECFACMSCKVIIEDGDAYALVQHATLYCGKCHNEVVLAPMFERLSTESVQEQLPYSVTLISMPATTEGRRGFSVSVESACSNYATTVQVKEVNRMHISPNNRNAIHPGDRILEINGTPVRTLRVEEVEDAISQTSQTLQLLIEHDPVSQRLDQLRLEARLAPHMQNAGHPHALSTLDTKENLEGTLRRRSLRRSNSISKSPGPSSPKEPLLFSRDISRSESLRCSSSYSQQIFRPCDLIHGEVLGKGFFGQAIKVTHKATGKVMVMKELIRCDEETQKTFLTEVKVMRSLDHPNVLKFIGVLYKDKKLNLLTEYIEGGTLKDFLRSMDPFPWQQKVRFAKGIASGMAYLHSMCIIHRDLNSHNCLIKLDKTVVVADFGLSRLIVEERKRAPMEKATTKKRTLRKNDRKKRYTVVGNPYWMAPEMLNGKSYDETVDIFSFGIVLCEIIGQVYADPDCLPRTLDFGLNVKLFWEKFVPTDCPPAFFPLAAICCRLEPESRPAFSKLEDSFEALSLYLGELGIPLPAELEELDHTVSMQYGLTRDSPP

Cc1cc(CN(CC2CC2)C(=O)c2ccc(S(=O)(=O)Nc3ccccc3)cc2)ncc1NCCO [Compound 83, N-(Cyclopropylmethyl)-N-[[5-(2-hydroxyethylamino)-4-methyl-2-pyridyl]methyl]-4-(phenylsulfamoyl)benzamide]
microsomal CLint at 0.5 h, 2 µM (Microsomal stability [1]): 130 µL/min/mg | Papp [2]: 5 nm/s | microsomal CLint at 0.5 h, 2 µM (Microsomal stability [3]): 171 µL/min/mg

CCCCN(Cc1ccc2[nH]ccc2c1)C(=O)c1ccc(S(=O)(=O)Nc2ccccc2)cc1 [Compound 51, N-Butyl-N-(1H-indol-5-ylmethyl)-4-(phenylsulfamoyl)benzamide]
solubility at 24 h (Thermodynamic solubility): 3 µM (≈ 1.38 µg/mL) | fubrain [4]: < 0.1% | fuplasma [4]: 1.3% | CLint scaled (In vivo PK, i.v. dosing): 4.07 L/h/kg | AUC(0-inf) at 1 h (In vivo PK, i.v. dosing; 1 mg/kg): 0.247 µg·h/mL | Vd at 1 h (In vivo PK, i.v. dosing; 1 mg/kg): 2.3 L/kg | half-life at 1 h (In vivo PK, i.v. dosing; 1 mg/kg): 30 min | Kp at 1 h (CNS penetration study): 0.4 | Kp uu at 1 h (CNS penetration study): < 0.03 | microsomal CLint at 2 μM (Microsomal stability [1]): 121 µL/min/mg | Cmax at 1 h ([5]; po, 3 mg/kg): 0.0046 µg/mL | Tmax at 1 h ([5]; po, 3 mg/kg): 60 min | bioavailability at 1 h ([5]; po, 3 mg/kg): 2% | microsomal CLint at 2 μM (Microsomal stability [3]): 357 µL/min/mg

Cc1nc(CN(CC2CC2)C(=O)c2ccc(S(=O)(=O)Nc3ccccc3)cc2)ccc1NCCO [Compound 82, N-(Cyclopropylmethyl)-N-[[5-(2-hydroxyethylamino)-6-methyl-2-pyridyl]methyl]-4-(phenylsulfamoyl)benzamide]
microsomal CLint at 2 μM (Microsomal stability [1]): 97 µL/min/mg | Caco-2 ER (Caco-2): 81 | Papp [2]: 6 nm/s | microsomal CLint at 2 μM (Microsomal stability [3]): 221 µL/min/mg

CN(CCO)c1ccc(CN(CC2CC2)C(=O)c2ccc(S(=O)(=O)Nc3ccccc3)cc2)nc1 [Compound 77, N-(Cyclopropylmethyl)-N-[[5-[2-hydroxyethyl(methyl)amino]-2-pyridyl]methyl]-4-(phenylsulfamoyl)benzamide]
microsomal CLint at 2 μM (Microsomal stability [1]): 109 µL/min/mg | Papp [2]: 5 nm/s | Microsomal CLint Rat (Microsomal stability [3]): Rapid

CCn1c(=O)c(-c2ccc(Cl)cc2Cl)cc2cnc(Nc3ccc(N4CCNCC4)c(F)c3)nc21 [FRAX486]
p-cofilin levels vs vehicle [6]: consistent reduction

O=C(c1ccc(S(=O)(=O)Nc2ccccc2)cc1)N(Cc1ccc(NC2COC2)cn1)CC1CC1 [Compound 76, N-(Cyclopropylmethyl)-N-[[5-(oxetan-3-ylamino)-2-pyridyl]methyl]-4-(phenylsulfamoyl)benzamide]
microsomal CLint at 0.5 h, 2 µM (Microsomal stability [1]): 71 µL/min/mg | Papp [2]: 17 nm/s | microsomal CLint at 0.5 h, 2 µM (Microsomal stability [3]): 22 µL/min/mg

O=C(c1ccc(S(=O)(=O)Nc2ccccc2)cc1)N(Cc1ccc(F)cn1)CC1CC1 [Compound 71, N-(Cyclopropylmethyl)-N-((5-fluoropyridin-2-yl)methyl)-4-(N-phenylsulfamoyl)benzamide]
microsomal CLint at 0.5 h, 2 µM (Microsomal stability [1]): 282 µL/min/mg | Papp [2]: 211 nm/s | Microsomal CLint Rat (Microsomal stability [3]): Rapid

N#CCCN(Cc1ccncc1)C(=O)c1ccc(S(=O)(=O)Nc2ccccc2)cc1 [Compound 55, N-(2-Cyanoethyl)-4-(phenylsulfamoyl)-N-(4-pyridylmethyl)benzamide]
CLint scaled (In vivo PK, i.v. dosing): 0.99 L/h/kg | AUC(0-inf) at 1 h (In vivo PK, i.v. dosing; 0.2 mg/kg): 0.217 µg·h/mL | Vd at 1 h (In vivo PK, i.v. dosing; 0.2 mg/kg): 0.4 L/kg | half-life at 1 h (In vivo PK, i.v. dosing; 0.2 mg/kg): 18 min | microsomal CLint at 2 μM (Microsomal stability [1]): 32 µL/min/mg | microsomal CLint at 2 μM (Microsomal stability [3]): 81 µL/min/mg

CN(c1ccccc1)S(=O)(=O)c1ccc(C(=O)N(Cc2ccc(NCCO)cn2)CC2CC2)cc1 [Compound 84, N-(Cyclopropylmethyl)-N-[[5-(2-hydroxyethylamino)-2-pyridyl]methyl]-4-[methyl(phenyl)sulfamoyl]benzamide]
microsomal CLint at 2 μM (Microsomal stability [1]): 344 µL/min/mg | Caco-2 ER (Caco-2): 12 | Papp [2]: 57 nm/s | microsomal CLint at 2 μM (Microsomal stability [3]): 409 µL/min/mg

COCCNc1ccc(CN(CC2CC2)C(=O)c2ccc(S(=O)(=O)Nc3ccccc3)cc2)nc1 [Compound 75, N-(Cyclopropylmethyl)-N-[[5-(2-methoxyethylamino)-2-pyridyl]methyl]-4-(phenylsulfamoyl)benzamide]
solubility at 24 h (Thermodynamic solubility): 28 µM (≈ 13.8 µg/mL) | fubrain [4]: 2.2% | fuplasma [4]: 4.7% | CLint scaled (In vivo PK, i.v. dosing): 22.4 L/h/kg | AUC(0-inf) at 1 h (In vivo PK, i.v. dosing; 0.5 mg/kg): 0.0226 µg·h/mL | Vd at 1 h (In vivo PK, i.v. dosing; 0.5 mg/kg): 10.9 L/kg | half-life at 1 h (In vivo PK, i.v. dosing; 0.5 mg/kg): 24 min | IC50 [7]: 0.0776 µM | microsomal CLint at 0.5 h, 2 µM (Microsomal stability [1]): 175 µL/min/mg | Cmax at 1 h ([5]; ip, 10 mg/kg): 0.134 µg/mL | Tmax at 1 h ([5]; ip, 10 mg/kg): 18 min | bioavailability ([5]; ip, 10 mg/kg): 55% | Cmax at 1 h ([5]; po, 3 mg/kg): 0.0168 µg/mL | Tmax at 1 h ([5]; po, 3 mg/kg): 24 min | bioavailability at 1 h ([5]; po, 3 mg/kg): 13% | Papp [2]: 83 nm/s | microsomal CLint at 0.5 h, 2 µM (Microsomal stability [3]): 327 µL/min/mg

CCCCN(Cc1ccc(N2CCNCC2)cc1)C(=O)c1ccc(S(=O)(=O)Nc2ccccc2)cc1 [Compound 49, N-Butyl-4-(N-phenylsulfamoyl)-N-(4-(piperazin-1-yl)benzyl)benzamide]
IC50 (LIMK1): > 10 µM | microsomal CLint at 2 μM (Microsomal stability [1]): 50 µL/min/mg | IC50 (LIMK2): 2.29 µM | microsomal CLint at 2 μM (Microsomal stability [3]): 56 µL/min/mg

O=C(c1ccc(S(=O)(=O)Nc2ccccc2)cc1)N(Cc1ccc(CCc2nnn[nH]2)cn1)CC1CC1 [Compound 79, N-(Cyclopropylmethyl)-4-(phenylsulfamoyl)-N-[[5-[2-(1H-tetrazol-5-yl)ethyl]-2-pyridyl]methyl]benzamide]
microsomal CLint at 2 μM (Microsomal stability [1]): 22 µL/min/mg | Caco-2 ER (Caco-2): 103 | Papp [2]: 1 nm/s | microsomal CLint at 2 μM (Microsomal stability [3]): 12 µL/min/mg

O=C(c1ccc(S(=O)(=O)Nc2ccccc2)cc1)N(Cc1ccc(OCCO)cc1)CC1CC1 [Compound 86, N-(Cyclopropylmethyl)-N-[[4-(2-hydroxyethoxy)phenyl]methyl]-4-(phenylsulfamoyl)benzamide]
solubility at 24 h (Thermodynamic solubility): 6 µM (≈ 2.88 µg/mL) | fubrain [4]: 0.9% | fuplasma [4]: 1.4% | IC50 [7]: 0.0562 µM | microsomal CLint at 0.5 h, 2 µM (Microsomal stability [1]): 119 µL/min/mg | Papp [2]: 150 nm/s | microsomal CLint at 0.5 h, 2 µM (Microsomal stability [3]): 420 µL/min/mg

CCCCN(Cc1ccncc1)C(=O)c1ccc(S(=O)(=O)Nc2ccccc2)cc1 [Compound 43, N-Butyl-4-(N-phenylsulfamoyl)-N-(pyridin-4-ylmethyl)benzamide]
IC50 (LIMK1): 0.977 µM | microsomal CLint at 2 μM (Microsomal stability [1]): 144 µL/min/mg | IC50 (LIMK2): 0.0191 µM | microsomal CLint at 2 μM (Microsomal stability [3]): 484 µL/min/mg

O=C(c1ccc(S(=O)(=O)Nc2ccccc2)cc1)N(Cc1ccc(NCCO)cn1)CC1CC1 [Compound 74, N-(Cyclopropylmethyl)-N-[[5-(2-hydroxyethylamino)-2-pyridyl]methyl]-4-(phenylsulfamoyl)benzamide]
fubrain [4]: 2.8% | fuplasma [4]: 8.0% | CLint scaled (In vivo PK, i.v. dosing): 3.11 L/h/kg | AUC(0-inf) at 1 h (In vivo PK, i.v. dosing; 1 mg/kg): 0.322 µg·h/mL | Vd at 1 h (In vivo PK, i.v. dosing; 1 mg/kg): 1.8 L/kg | half-life at 1 h (In vivo PK, i.v. dosing; 1 mg/kg): 42 min | IC50 [7]: 0.661 µM | microsomal CLint at 0.5 h, 2 µM (Microsomal stability [1]): 42 µL/min/mg | Cmax at 1 h ([5]; po, 3 mg/kg): 0.0508 µg/mL | Tmax at 1 h ([5]; po, 3 mg/kg): 24 min | bioavailability at 1 h ([5]; po, 3 mg/kg): 15% | microsomal CLint at 0.5 h, 2 µM (Microsomal stability [3]): 114 µL/min/mg

CCCCN(Cc1ccc(OC)cc1)C(=O)c1ccc(S(=O)(=O)Nc2ccccc2)cc1 [Compound 40, N-Butyl-N-(4-methoxybenzyl)-4-(N-phenylsulfamoyl)benzamide]
IC50 (LIMK1): 0.447 µM | microsomal CLint at 2 μM (Microsomal stability [1]): 280 µL/min/mg | IC50 (LIMK2): 0.0398 µM | microsomal CLint at 2 μM (Microsomal stability [3]): 978 µL/min/mg
